Laboratory results as given in ChEMBL document CHEMBL1201862, “PubChem BioAssay data set” (2004).
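In this assay, cells in 96-well plates receive the compound at five concentrations for 48 hours. Endpoints are linearly interpolated between the surrounding concentrations. GI50 = concentration required for 50% inhibition of growth.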 Activity calls are given as the source filed them. No stated cut-off is given here; in the data, active = GI50 up to about 1.1 µM and inactive = higher.

Experiments:
Assay in all cases: growth of human tumour cells (NCI), 48 h
NCI-H226 = test system: NCI-H226
IGROV-1 = test system: IGROV-1
OVCAR-4 = test system: OVCAR-4
MDA-N = test system: MDA-N
OVCAR-8 = test system: OVCAR-8
K562 = test system: K562
NCI-H23 = test system: NCI-H23
NCI/ADR-RES = test system: NCI/ADR-RES
SF-268 = test system: SF-268
NCI-H522 = test system: NCI-H522
786-0 = test system: 786-0
SNB-19 = test system: SNB-19
HOP-62 = test system: HOP-62
SK-MEL-5 = test system: SK-MEL-5
HCT-116 = test system: HCT-116
CCRF-CEM = test system: CCRF-CEM
Hs-578T = test system: Hs-578T
SF-539 = test system: SF-539
BT-549 = test system: BT-549

Measured: GI50

COc1cc([C@@H]2c3cc4c(cc3[C@@H](OC3OC5COC(C)OC5C(OC(=O)CN5CCN(C)CC5)C3OC(=O)CN3CCN(C)CC3)C3COC(=O)[C@@H]32)OCO4)cc(OC)c1OC(=O)CN1CCN(C)CC1 (some centres undefined)
inactive: NCI-H226 50.4 µM | IGROV-1 72.3 µM | OVCAR-4 > 100 µM | MDA-N > 100 µM | OVCAR-8 60.8 µM | K562 67.5 µM | NCI-H23 22.3 µM | NCI/ADR-RES 29.9 µM | SF-268 75.3 µM | NCI-H522 27.2 µM | 786-0 21.9 µM | SNB-19 78.7 µM | HOP-62 40.2 µM | SK-MEL-5 43.5 µM | HCT-116 25.5 µM | CCRF-CEM 9.29 µM | Hs-578T 56 µM | SF-539 23.1 µM | BT-549 34.4 µM

COc1cc(/C=C2\S/C(=N/Nc3nc(-c4ccc(Br)cc4)cs3)NC2=O)cc(OC)c1OC
inactive: NCI-H226 4.09 µM | IGROV-1 12 µM | OVCAR-4 17.8 µM | MDA-N 17.4 µM | OVCAR-8 14.5 µM | NCI-H23 5.11 µM | NCI/ADR-RES 15.9 µM | SF-268 20 µM | NCI-H522 12.5 µM | 786-0 9.44 µM | SNB-19 4.74 µM | HOP-62 10.5 µM | SK-MEL-5 5.02 µM | HCT-116 4.49 µM | CCRF-CEM 2.45 µM | Hs-578T 11.9 µM | SF-539 8.83 µM | BT-549 7.82 µM

O=c1[nH]c(Nc2nc3ccccc3[nH]2)nc2c1CCC2
inactive: NCI-H226 63.1 µM | IGROV-1 > 100 µM | OVCAR-4 90.2 µM | MDA-N > 100 µM | OVCAR-8 42.6 µM | K562 > 100 µM | NCI-H23 74.3 µM | NCI/ADR-RES > 100 µM | SF-268 43.6 µM | NCI-H522 > 100 µM | 786-0 44.7 µM | SNB-19 > 100 µM | HOP-62 49.9 µM | SK-MEL-5 > 100 µM | HCT-116 > 100 µM | CCRF-CEM > 100 µM | Hs-578T 22.6 µM | SF-539 42.7 µM | BT-549 35.5 µM

CCCCCCCCCCCC1=C(O)C(=O)C(CC2=C(O)C(=O)C(CCCCCCCCCCC)=C(O)C2=O)=C(O)C1=O
inactive: NCI-H226 > 100 µM | IGROV-1 > 100 µM | OVCAR-4 40.7 µM | MDA-N > 100 µM | OVCAR-8 29.8 µM | K562 49.8 µM | NCI-H23 54.6 µM | NCI/ADR-RES > 100 µM | SF-268 26.5 µM | NCI-H522 40.6 µM | 786-0 59.6 µM | SNB-19 21.1 µM | SK-MEL-5 > 100 µM | HCT-116 > 100 µM | CCRF-CEM 21.2 µM | Hs-578T 22.8 µM | SF-539 > 100 µM | BT-549 > 100 µM
